EC50 data for 36 molecules are collected here from US10214507B2, “Carbazole-containing amides, carbamates, and ureas as cryptochrome modulators” (Reset Therapeutics, Inc., priority 2014, dated 2019).

In the assay the test system is stable U20S reporter cells harboring Per2-dLuc. Nature of the assay: Per2 assay for evaluating the potency of test compounds (circadian luciferase reporter). Format: cell-based. The note with it: amplitude of Per2-dLuc luminescence vs log concentration. The protocol:
Compounds were screened by using a high-throughput circadian assay system as previously described in Zhang, E. E. et al. Cell, 2009, 139, 199-210. In brief, stable U20S reporter cells harboring Per2-dLuc were plated at a density of 30,000 cells/well in Corning 96-well, solid white, flat bottom, TC-treated microplates (Corning®), and incubated for 48 hours at 37° C. in the presence of 5% CO2 in a medium of Dulbecco's Modified Eagle Medium (DMEM) supplemented with 10% fetal bovine serum (FBS) and penicillin (100 units/mL)-streptomycin (100 μg/mL). […] DMSO stocks are then serially diluted in DMSO, typically diluting 3-fold for each dilution step. Following the 48 h period, cell culture medium is removed from plated cells and cells are synchronized with 200 μL/well of complete cell culture medium (described above), supplemented with 5 μM forskolin (Tocris®) and 1 mM beetle luciferin (Promega®). Immediately following synchronization, 1 μL of compound dilution is added to each well. Plates are sealed, shaken briefly, and gene expression was monitored by measuring luminescence (Tecan® Infinite M200 or Tecan® Infinite M200 Pro) continuously for a minimum of 3 days at 35° C. Raw luminescence data (counts) are first analyzed using Multicycle™ software (Actimetrics, Inc.) to determine the amplitude (amp), period, and phase (phz) for each compound concentration. The period length for control wells (i.e. no compound, DMSO only) should be 26-30 h. Amp data are then plotted against the logarithm compound concentration (M) and analyzed by nonlinear regression analysis to determine the EC50.
Background: In a reporter assay the amount or activity of a reporter protein is the signal.

In turn, `CC1CCCN(CC(O)Cn2c3ccc(F)cc3c3cc(F)ccc32)C1=O` (stereo not drawn) [Compound 27, 1-(3-(3,6-difluoro-9H-carbazol-9-yl)-2-hydroxypropyl)-3-methylpiperidin-2-one] registered an EC50 of 0.478 µM.
Next, `C[C@H]1CCC(=O)N1C[C@H](O)Cn1c2ccc(F)cc2c2cc(F)ccc21` [Compound 110, (S)-1-((R)-3-(3,6-difluoro-9H-carbazol-9-yl)-2-hydroxypropyl)-5-methylpyrrolidin-2-one]: 0.83 µM.
The result for `CC1CCC(=O)N1CC(C)(O)Cn1c2ccc(F)cc2c2cc(F)ccc21` (stereo not drawn) [Compound 35, 1-(3-(3,6-difluoro-9H-carbazol-9-yl)-2-hydroxy-2-methylpropyl)-5-methylpyrrolidin-2-one] reads 0.678 µM; that for `CC(O)(CN1Cc2ccccc2NC1=O)Cn1c2ccc(F)cc2c2cc(F)ccc21` (stereo not drawn) [Compound 102, 3-(3-(3,6-difluoro-9H-carbazol-9-yl)-2-hydroxy-2-methylpropyl)-3,4-dihydroquinazolin-2(1H)-one], 0.455 µM.
Next, `CC1CCN(CC(O)Cn2c3ccc(F)cc3c3cc(F)ccc32)C(=O)N1C` (stereo not drawn) [Compound 101, 1-(3-(3,6-difluoro-9H-carbazol-9-yl)-2-hydroxypropyl)-3,4-dimethyltetrahydropyrimidin-2(1H)-one]: 0.417 µM.
`C[C@H]1CCN(C[C@H](O)Cn2c3ccccc3c3ccccc32)C1=O` [Compound 117, (S)-1-((R)-3-(9H-carbazol-9-yl)-2-hydroxypropyl)-3-methylpyrrolidin-2-one] came in with an EC50 of 0.188 µM.
The result for `CCN1CCN(CC(O)Cn2c3ccc(F)cc3c3cc(F)ccc32)C1=O` (stereo not drawn) [Compound 73, 1-(3-(3,6-difluoro-9H-carbazol-9-yl)-2-hydroxypropyl)-3-ethylimidazolidin-2-one] reads 1.11 µM; that for `C[C@H]1CN(C[C@H](O)Cn2c3ccccc3c3ccccc32)C(=O)N1` [Compound 137, (S)-1-((R)-3-(9H-carbaxol-9-yl)-2-hydroxypropyl)-4-methylimidazolidin-2-one], 0.766 µM; that for `C[C@H]1CCN(C[C@H](O)Cn2c3ccc(F)cc3c3cc(F)ccc32)C1=O` [Compound 115, (S)-1-((R)-3-(3,6-difluoro-9H-carbazol-9-yl)-2-hydroxypropyl)-3-methylpyrrolidin-2-one], 0.5 µM.
Next, `O=C1C(C2CCC2)CCCN1CC(O)Cn1c2ccc(F)cc2c2cc(F)ccc21` (stereo not drawn) [Compound 51, 3-cyclobutyl-1-(3-(3,6-difluoro-9H-carbazol-9-yl)-2-hydroxypropyl)piperidin-2-one]: 0.265 µM.
As for `O=C1N(CC(O)Cn2c3ccc(F)cc3c3cc(F)ccc32)CCN1C1CCC1` (stereo not drawn) [Compound 93, 1-cyclobutyl-3-(3-(3,6-difluoro-9H-carbazol-9-yl)-2-hydroxypropyl)imidazolidin-2-one], a half-maximal effect (EC50) was put at 0.129 µM.
Next, `O=C1C(F)CCCN1CC(O)Cn1c2ccc(F)cc2c2cc(F)ccc21` (stereo not drawn) [Compound 11, 1-(3-(3,6-difluoro-9H-carbazol-9-yl)-2-hydroxypropyl)-3-fluoropiperidin-2-one]: 0.12 µM.
The result for `O=C1N(CC(O)Cn2c3ccc(F)cc3c3cc(F)ccc32)CCCN1C1CCCCC1` (stereo not drawn) [Compound 74, 1-cyclohexyl-3-(3-(3,6-difluoro-9H-carbazol-9-yl)-2-hydroxypropyl)tetrahydropyrimidin-2(1H)-one] reads 0.284 µM; that for `O=C1[C@@H](F)CCN1C[C@H](O)Cn1c2ccccc2c2ccccc21` [Compound 122, (S)-1-((R)-3-(9H-carbazol-9-yl)-2-hydroxypropyl)-3-fluoropyrrolidin-2-one], 0.263 µM.
Next, `O=C1C(F)CCCN1CC(O)Cn1c2ccccc2c2ccccc21` (stereo not drawn) [Compound 70, 1-(3-(9H-carbazol-9-yl)-2-hydroxypropyl)-3-fluoropiperidin-2-one]: 0.061 µM.
`CCC1CCCN(CC(O)Cn2c3ccc(F)cc3c3cc(F)ccc32)C1=O` (stereo not drawn) [Compound 24, 1-(3-(3,6-difluoro-9H-carbazol-9-yl)-2-hydroxypropyl)-3-ethylpiperidin-2-one] registered an EC50 of 0.332 µM.
In turn, `CC(O)(CN1CCC(F)C1=O)Cn1c2ccc(F)cc2c2cc(F)ccc21` (stereo not drawn) [Compound 10, 1-(3-(3,6-difluoro-9H-carbazol-9-yl)-2-hydroxy-2-methylpropyl)-3-fluoropyrrolidin-2-one] returned an EC50 of 0.487 µM.
The result for `C[C@H]1CCC(=O)N1C[C@H](O)Cn1c2ccccc2c2ccccc21` [Compound 112, (S)-1-((R)-3-(9H-carbazol-9-yl)-2-hydroxypropyl)-5-methylpyrrolidin-2-one] reads 0.47 µM; that for `C[C@@H]1CN(C[C@H](O)Cn2c3ccc(F)cc3c3cc(F)ccc32)C(=O)N1` [Compound 136, (R)-1-((R)-3-(3,6-difluoro-9H-carbazol-9-yl)-2-hydroxypropyl)-4-methylimidazolidin-2-one], 0.826 µM.
The molecule `O=C1C(C2CCCC2)CCCN1CC(O)Cn1c2ccc(F)cc2c2cc(F)ccc21` (stereo not drawn) [Compound 23, 3-cyclopentyl-1-(3-(3,6-difluoro-9H-carbazol-9-yl)-2-hydroxypropyl)piperidin-2-one] registered an EC50 of 0.399 µM.
With `C[C@@H]1CCC(=O)N1C[C@H](O)Cn1c2ccccc2c2ccccc21` [Compound 111, (R)-1-((R)-3-(9H-carbazol-9-yl)-2-hydroxypropyl)-5-methylpyrrolidin-2-one], the EC50 worked out at 0.095 µM.
The result for `C[C@@H]1CCC(=O)N(C[C@H](O)Cn2c3ccc(F)cc3c3cc(F)ccc32)C1` [Compound 134, (R)-1-((R)-3-(3,6-difluoro-9H-carbazol-9-yl)-2-hydroxypropyl)-5-methylpiperidin-2-one] reads 0.397 µM; that for `O=C1[C@H]2CC[C@H](C2)N1C[C@H](O)Cn1c2ccccc2c2ccccc21` [Compound 107, (1R,4S)-2-((R)-3-(9H-carbazol-9-yl)-2-hydroxypropyl)-2-azabicyclo[2.2.1]heptan-3-one], 0.089 µM; that for `CC1CN(CC(O)Cn2c3ccc(F)cc3c3cc(F)ccc32)C(=O)N1` (stereo not drawn) [Compound 85, 1-(3-(3,6-difluoro-9H-carbazol-9-yl)-2-hydroxypropyl)-4-methylimidazolidin-2-one], 0.667 µM.
The result for `CC(C)N1CCCN(CC(O)Cn2c3ccc(F)cc3c3cc(F)ccc32)C1=O` (stereo not drawn) [Compound 77, 1-(3-(3,6-difluoro-9H-carbazol-9-yl)-2-hydroxypropyl)-3-isopropyltetrahydropyrimidin-2(1H)-one] reads 0.62 µM.
Next, `O=C1CCCN1CC(O)Cn1c2ccc(F)cc2c2cc(F)ccc21` (stereo not drawn) [Compound 7, 1-(3-(3,6-difluoro-9H-carbazol-9-yl)-2-hydroxypropyl)pyrrolidin-2-one]: 0.625 µM.
In turn, `CC1CCCN(CC(C)(O)Cn2c3ccc(F)cc3c3cc(F)ccc32)C1=O` (stereo not drawn) [Compound 28, 1-(3-(3,6-difluoro-9H-carbazol-9-yl)-2-hydroxy-2-methylpropyl)-3-methylpiperidin-2-one] yielded an EC50 of 0.824 µM.
The result for `O=C1N(CC(O)Cn2c3ccc(F)cc3c3cc(F)ccc32)CCCN1c1ccccc1` (stereo not drawn) [Compound 75, 1-(3-(3,6-difluoro-9H-carbazol-9-yl)-2-hydroxypropyl)-3-phenyltetrahydropyrimidin-2(1H)-one] reads 0.171 µM; that for `O=C1N(CC(O)Cn2c3ccc(F)cc3c3cc(F)ccc32)CCCC1(F)F` (stereo not drawn) [Compound 13, 1-(3-(3,6-difluoro-9H-carbazol-9-yl)-2-hydroxypropyl)-3,3-difluoropiperidin-2-one], 0.288 µM; that for `CC1CCC(=O)N(CC(C)(O)Cn2c3ccc(F)cc3c3cc(F)ccc32)C1` (stereo not drawn) [Compound 38, 1-(3-(3,6-difluoro-9H-carbazol-9-yl)-2-hydroxy-2-methylpropyl)-5-methylpiperidin-2-one], 1.22 µM.
As to `O=C1N(CC(O)Cn2c3ccccc3c3ccccc32)CCN1C1CCC1` (stereo not drawn) [Compound 96, 1-(3-(9H-carbazol-9-yl)-2-hydroxypropyl)-3-cyclobutylimidazolidin-2-one], the midpoint of the response, the EC50, lay at 0.493 µM.
Next, `CC1CCN(CC(O)Cn2c3ccccc3c3ccccc32)C(=O)C1` (stereo not drawn) [Compound 61, 2-(3-(9H-carbazol-9-yl)-2-hydroxypropyl)-4-methylpiperidin-2-one]: 0.71 µM; `O=C1C(C2CCCC2)CCN1CC(O)Cn1c2ccc(F)cc2c2cc(F)ccc21` (stereo not drawn) [Compound 18, 3-cyclopentyl-1-(3-(3,6-difluoro-9H-carbazol-9-yl)-2-hydroxypropyl)pyrrolidin-2-one]: 0.338 µM; `CC(O)(CN1CCCC1=O)Cn1c2ccc(F)cc2c2cc(F)ccc21` (stereo not drawn) [Compound 8, 1-(3-(3,6-difluoro-9H-carbazol-9-yl)-2-hydroxy-2-methylpropyl)pyrrolidin-2-one]: 0.527 µM.
The result for `CC(O)(CN1CCCCC1=O)Cn1c2ccc(F)cc2c2cc(F)ccc21` (stereo not drawn) [Compound 5, 1-(3-(3,6-difluoro-9H-carbazol-9-yl)-2-hydroxy-2-methylpropyl)piperidin-2-one] reads 0.536 µM; that for `COC1CCCN(CC(O)Cn2c3ccccc3c3ccccc32)C1=O` (stereo not drawn) [Compound 60, 1-(3-(9H-carbazol-9-yl)-2-hydroxypropyl)-3-methoxypiperidin-2-one], 0.331 µM.

Usually EC50 stands for the concentration needed to bring the measured effect to its halfway point. High values mean lower potency in that assay, low ones higher potency in that assay.
